Measured values from ChEMBL document CHEMBL4411327, “Discovery of pyrimidine nucleoside dual prodrugs and pyrazine nucleosides as novel anti-HCV agents” (Bioorg Med Chem, 2019).

Tests used:
Hepatitis C virus [1] = assay: Antiviral activity against HCV genotype 1b replicon infected in human HuH7 cells at 10 uM after 72 hrs by bright-glo luciferase reporter gene assay relative to control; assay type: functional, Hepacivirus hominis; details: subtype 1b, Huh-7, 72 h
Hepatitis C virus [2] = assay: Antiviral activity against HCV genotype 1b replicon infected in human HuH7 cells after 72 hrs by bright-glo luciferase reporter gene assay; assay type: functional, organism-based, Hepacivirus hominis; details: subtype 1b, Huh-7, 72 h
[3] = Cytotoxicity against human HuH7 cells infected with HCV genotype 1b replicon after 72 hrs by CellTiter-Fluor reagent based fluorescence assay; assay type: cell-based, Huh-7
Hepatitis C virus [4] = assay: Antiviral activity against HCV genotype 1b replicon infected in human HuH7 cells at 20 uM after 72 hrs by bright-glo luciferase reporter gene assay relative to control; assay type: functional, Hepacivirus hominis; details: subtype 1b, Huh-7, 72 h
Hepatitis C virus [5] = assay: Antiviral activity against HCV genotype 1b replicon infected in human HuH7 cells at 100 uM after 72 hrs by bright-glo luciferase reporter gene assay relative to control; assay type: functional, Hepacivirus hominis; details: subtype 1b, Huh-7, 72 h
[6] = Half life in human plasma at 40 uM by LC-MS/MS analysis; assay type: ADME, cell-free
[7] = Stability in human plasma assessed as parent compound remaining at 40 uM measured immediately by LC-MS/MS analysis; assay type: ADME, cell-free; details: read-out: Stability
[8] = Half life in human liver microsomes at 0.1 uM preincubated with MgCl2 for 10 mins followed by NADPH addition by LC-MS/MS analysis; assay type: ADME, Microsome; details: liver microsomes
[9] = Stability in human liver microsomes assessed as parent compound remaining at 0.1 uM preincubated with MgCl2 for 10 mins followed by NADPH addition measured after 17 mins by LC-MS/MS analysis; assay type: ADME, Microsome; details: liver microsomes, read-out: Stability
[10] = Stability in human plasma assessed as parent compound remaining at 40 uM measured after 2 hrs by LC-MS/MS analysis; assay type: ADME, cell-free; details: read-out: Stability
[11] = Stability in human liver microsomes assessed as parent compound remaining at 0.1 uM preincubated with MgCl2 for 10 mins followed by NADPH addition measured after 30 mins by LC-MS/MS analysis; assay type: ADME, Microsome; details: liver microsomes, read-out: Stability
[12] = Stability in human liver microsomes assessed as parent compound remaining at 0.1 uM preincubated with MgCl2 for 10 mins followed by NADPH addition measured immediately by LC-MS/MS analysis; assay type: ADME, Microsome; details: read-out: Stability
[13] = Stability in human plasma assessed as parent compound remaining at 40 uM measured after 1 hr by LC-MS/MS analysis; assay type: ADME, cell-free; details: read-out: Stability
[14] = Stability in human liver microsomes assessed as parent compound remaining at 0.1 uM preincubated with MgCl2 for 10 mins followed by NADPH addition measured after 7 mins by LC-MS/MS analysis; assay type: ADME, Microsome; details: read-out: Stability
[15] = Stability in human plasma assessed as parent compound remaining at 40 uM measured after 5 hrs by LC-MS/MS analysis; assay type: ADME, cell-free; details: read-out: Stability
[16] = Stability in human plasma assessed as parent compound remaining at 40 uM measured after 0.5 hrs by LC-MS/MS analysis; assay type: ADME, cell-free; details: read-out: Stability
[17] = Metabolic bioavailability in human liver microsomes at 0.1 uM preincubated with MgCl2 for 10 mins followed by NADPH addition measured within 60 mins by LC-MS/MS analysis; assay type: ADME, Microsome
[18] = Stability in human liver microsomes assessed as parent compound remaining at 0.1 uM preincubated with MgCl2 for 10 mins followed by NADPH addition measured after 60 mins by LC-MS/MS analysis; assay type: ADME, Microsome; details: read-out: Stability

| SMILES | inhibition at 10 µM (Hepatitis C virus [1]) [%] | EC50 (Hepatitis C virus [2]) [µM] | CC50 at 72 h [3] [µM] | inhibition at 20 µM (Hepatitis C virus [4]) [%] | also measured |
| --- | --- | --- | --- | --- | --- |
| CCOC(=O)n1c(=O)ccn([C@@H]2O[C@H](CO[P@@](=O)(N[C@@H](C)C(=O)OC(C)C)Oc3ccccc3)[C@@H](O)[C@@]2(C)F)c1=O | 100 | 0.65 | > 10 |  |  |
| CCNc1nccn([C@@H]2O[C@](C)(CO[P@@](=O)(N[C@@H](C)C(=O)OC(C)C)Oc3ccccc3)[C@@H](O)[C@H]2O)c1=O |  | > 100 | > 100 |  |  |
| CC(C)OC(=O)[C@@H](C)N[P@@](=O)(OC[C@H]1O[C@@H](n2ccnc(N)c2=O)[C@](C)(O)[C@@H]1O)Oc1ccccc1 |  | > 100 | > 100 |  |  |
| CCCCCOC(=O)n1c(=O)ccn([C@@H]2O[C@H](CO[P@@](=O)(N[C@@H](C)C(=O)OC(C)C)Oc3ccccc3)[C@@H](O)[C@@]2(C)F)c1=O | 99.9 | 0.7 | > 10 |  |  |
| COc1ccn([C@@H]2O[C@H](CO[P@@](=O)(N[C@@H](C)C(=O)OC(C)C)Oc3ccccc3)[C@@H](O)[C@@]2(C)F)c(=O)n1 |  | > 20 | > 20 | 0 |  |
| CCNc1nccn([C@@H]2O[C@H](CO[P@@](=O)(N[C@@H](C)C(=O)OC(C)C)Oc3ccccc3)[C@@H](O)[C@@]2(C)O)c1=O |  | > 100 | > 100 |  |  |
| CC(C)OC(=O)[C@H](C)N[P@](=O)(OC[C@H]1O[C@@H](n2ccc(=O)n(C(=O)OCc3ccccc3)c2=O)[C@](C)(F)[C@@H]1O)Oc1ccccc1 | 99.3 | 0.5 | > 10 |  |  |
| CCOC(=O)OC(C)n1c(=O)ccn([C@@H]2O[C@H](CO[P@@](=O)(N[C@@H](C)C(=O)OC(C)C)Oc3ccccc3)[C@@H](O)[C@@]2(C)F)c1=O (stereo partly drawn) | 99.6 | 0.22 | > 10 |  |  |
| CC(C)OC(=O)[C@H](C)N[P@](=O)(OC[C@@]1(C)O[C@@H](n2ccnc(N)c2=O)[C@H](O)[C@@H]1O)Oc1ccccc1 |  | 19.5 | > 100 |  | inhibition at 100 µM (Hepatitis C virus [5]): 85.1% |
| CC(C)OC(=O)[C@H](C)N[P@](=O)(OC[C@H]1O[C@@H](n2ccc(OC3CC3)nc2=O)[C@](C)(F)[C@@H]1O)Oc1ccccc1 |  | > 20 | > 20 | 0 |  |
| C#CCOc1ccn([C@@H]2O[C@H](CO[P@@](=O)(N[C@@H](C)C(=O)OC(C)C)Oc3ccccc3)[C@@H](O)[C@@]2(C)F)c(=O)n1 |  | 12.2 | > 20 | 46.9 |  |
| CC(C)=CCOc1ccn([C@@H]2O[C@H](CO[P@@](=O)(N[C@@H](C)C(=O)OC(C)C)Oc3ccccc3)[C@@H](O)[C@@]2(C)F)c(=O)n1 |  | 0.2 | > 20 | 99.9 |  |
| CC(C)COC(=O)n1c(=O)ccn([C@@H]2O[C@H](CO[P@@](=O)(N[C@@H](C)C(=O)OC(C)C)Oc3ccccc3)[C@@H](O)[C@@]2(C)F)c1=O | 99.9 | 0.4 | > 10 |  | half-life at 40 µM [6]: 18 min; remaining at 0 h, 40 µM [7]: 100%; half-life at 0.1 µM [8]: 1.44 min; remaining at 17 min, 0.1 µM [9]: 0%; remaining at 2 h, 40 µM [10]: 17.2%; remaining at 0.5 h, 0.1 µM [11]: 0%; remaining at 0 min, 0.1 µM [12]: 100%; remaining at 1 h, 40 µM [13]: 61%; remaining at 7 min, 0.1 µM [14]: 3.5%; remaining at 5 h, 40 µM [15]: 0%; remaining at 0.5 h, 40 µM [16]: 87.3%; Fh at 1 h, 0.1 µM [17]: 1.33%; remaining at 1 h, 0.1 µM [18]: 0% |
| CC(C)OC(=O)[C@H](C)N[P@](=O)(OC[C@H]1O[C@@H](n2ccc(OCc3ccccc3)nc2=O)[C@](C)(F)[C@@H]1O)Oc1ccccc1 |  | > 20 | > 20 | 0 |  |
| CC=CCOc1ccn([C@@H]2O[C@H](CO[P@@](=O)(N[C@@H](C)C(=O)OC(C)C)Oc3ccccc3)[C@@H](O)[C@@]2(C)F)c(=O)n1 (mixture of isomers) |  | 30.3 | > 100 |  | inhibition at 100 µM (Hepatitis C virus [5]): 66.3% |
| CC(C)OC(=O)[C@H](C)N[P@](=O)(OC[C@H]1O[C@@H](n2ccc(=O)[nH]c2=O)[C@](C)(F)[C@@H]1O)Oc1ccccc1 [SOFOSBUVIR] |  | 0.18 | > 20 | 99.9 |  |
